# Measured values reported in ChEMBL document CHEMBL1201862, “PubChem BioAssay data set” (2004).
# Activity calls are given as the source filed them.
# Legend:
# [1] = molecular target: Melanin-concentrating hormone receptor 1 (Homo sapiens, UniProt Q99705); assay: Fluorescence-based counterscreen for antagonists of the G-protein coupled receptor 7 (GPR7): cell-based high throughput dose response assay to identify antagonists of the melanin-concentrating hormone receptor 1 (MCHR1).; assay type: functional
# [2] = molecular target: Protein Rev (Human immunodeficiency virus type 1 group M subtype B (isolate WMJ22)(HIV-1), UniProt P05866); assay: HIV-1 Rev-RRE RNA binding disruptors, dose response, biochemical, protein-RNA interaction (AID 842); design: species or system Human immunodeficiency virus 1
# [3] = molecular target: T1, SUMO-activating enzyme (Homo sapiens, UniProt Q9UBT2); assay: inhibitors of in vitro SUMOylation cascade, primary screen, biochemical, HTRF, uHTS (AID 2006); assay type: protein-complex assay
# [4] = molecular target: T2, Rac GTPase-activating protein 1 (Homo sapiens, UniProt Q9H0H5); assay: MgcRacGAP GTPase-activating activity inhibitors, confirmation, biochemical, ADP Hunter fluorescence, primary and confirmatory (AID 624330); assay type: functional
# T2 sequence (Q9H0H5 whole entry): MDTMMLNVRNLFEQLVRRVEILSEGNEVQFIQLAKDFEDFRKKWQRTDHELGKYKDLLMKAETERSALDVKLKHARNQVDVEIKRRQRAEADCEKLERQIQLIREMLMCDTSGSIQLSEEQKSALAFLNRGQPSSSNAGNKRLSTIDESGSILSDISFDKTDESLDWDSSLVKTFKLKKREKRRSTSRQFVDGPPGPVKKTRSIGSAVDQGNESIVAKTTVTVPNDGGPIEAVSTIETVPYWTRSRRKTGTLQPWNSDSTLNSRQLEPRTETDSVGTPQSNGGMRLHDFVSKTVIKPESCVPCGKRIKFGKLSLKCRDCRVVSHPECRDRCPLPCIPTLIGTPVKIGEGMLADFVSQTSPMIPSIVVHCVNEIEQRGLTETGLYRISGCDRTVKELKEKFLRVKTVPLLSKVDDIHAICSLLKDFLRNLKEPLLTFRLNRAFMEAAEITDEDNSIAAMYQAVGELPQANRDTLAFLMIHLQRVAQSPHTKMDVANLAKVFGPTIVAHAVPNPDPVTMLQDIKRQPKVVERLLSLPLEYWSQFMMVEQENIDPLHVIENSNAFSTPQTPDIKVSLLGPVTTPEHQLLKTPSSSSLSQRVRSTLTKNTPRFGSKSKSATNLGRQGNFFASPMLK
# [5] = M. tuberculosis H37Rv growth inhibitors, H37Rv strain (AID 1626); assay type: functional
# [6] = molecular target: Kallikrein-7 (Homo sapiens, UniProt P49862); assay: Fluorescence Intensity-based biochemical primary high throughput dose response assay to identify activators of kallikrein-7 (K7) zymogen.
# [7] = molecular target: Lysosomal acid glucosylceramidase (Homo sapiens, UniProt P04062); assay: Dose response cell-based high throughput screening assay to identify enhancers of beta-glucosidase activity. [Related pubchem assays: 784 ]; assay type: functional
# [8] = molecular target: T3, DNA repair and recombination protein RAD54-like (Homo sapiens, UniProt Q92698); assay: inhibitors of human RAD54 branch migration, confirmation, biochemical, fluorescence, cherry-picked samples, dose series (AID 651657); assay type: functional
# T3 sequence (Q92698 whole entry): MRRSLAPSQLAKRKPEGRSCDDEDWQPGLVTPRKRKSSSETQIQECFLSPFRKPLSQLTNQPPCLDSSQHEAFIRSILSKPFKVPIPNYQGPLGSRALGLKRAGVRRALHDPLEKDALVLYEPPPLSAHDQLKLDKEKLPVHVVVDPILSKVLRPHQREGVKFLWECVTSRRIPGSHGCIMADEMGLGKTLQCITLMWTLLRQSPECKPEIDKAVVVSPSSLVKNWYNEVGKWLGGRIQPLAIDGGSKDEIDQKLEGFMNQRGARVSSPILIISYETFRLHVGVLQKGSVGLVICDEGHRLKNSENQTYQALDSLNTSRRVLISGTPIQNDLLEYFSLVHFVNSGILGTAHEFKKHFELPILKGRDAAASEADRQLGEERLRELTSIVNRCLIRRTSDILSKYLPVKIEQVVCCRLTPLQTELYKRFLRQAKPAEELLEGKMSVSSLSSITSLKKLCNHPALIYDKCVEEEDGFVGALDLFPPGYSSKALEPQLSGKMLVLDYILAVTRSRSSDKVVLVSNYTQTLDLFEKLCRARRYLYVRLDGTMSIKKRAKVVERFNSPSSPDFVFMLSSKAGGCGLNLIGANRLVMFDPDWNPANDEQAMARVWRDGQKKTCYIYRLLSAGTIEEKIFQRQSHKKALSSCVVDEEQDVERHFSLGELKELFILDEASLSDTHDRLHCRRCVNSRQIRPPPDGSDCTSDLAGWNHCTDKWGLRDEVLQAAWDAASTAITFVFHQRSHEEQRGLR
# [9] = molecular target: Glyceraldehyde-3-phosphate dehydrogenase (Homo sapiens, UniProt P04406)
# [10] = molecular target: T4, Bcl-2-related protein A1 (Mus musculus, UniProt Q07440); assay: Bfl-1 binding inhibitors, SAR follow-up, biochemical, fluorescence polarization (AID 1070)
# T4 sequence (Q07440 whole entry): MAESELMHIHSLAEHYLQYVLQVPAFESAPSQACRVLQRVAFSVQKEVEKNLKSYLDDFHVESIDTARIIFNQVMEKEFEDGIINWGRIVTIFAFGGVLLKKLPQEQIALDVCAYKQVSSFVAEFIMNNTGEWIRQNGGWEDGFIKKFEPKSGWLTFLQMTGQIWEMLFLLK
# [11] = molecular target: T4, Bcl-2-related protein A1; assay: Bfl-1 inhibitors blocking BH3 peptide binding, confirmation, biochemical, TR-FRET, mouse Bfl-1 (AID 621);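 also: TR-FRET binding of GST-Bfl-1 to FITC-labelled Bid peptide via terbium antibody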
# [12] = molecular target: Metabotropic glutamate receptor 4 (Rattus norvegicus, UniProt P31423); assay: Modulation of the Metabotropic Glutamate Receptor mGluR4: Rat PAM Potency. [Related pubchem assays (depositor defined):AID2437, AID2807]; assay type: functional
# [13] = cells; assay type: functional, cell-based
# [14] = inhibitors of Bluetongue virus cytopathic effect, confirmation, arbovirus, BSR cells (AID 1250); assay type: functional;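 also: protection from viral cytopathic effect measured as cell viability by ATP luminescence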
# [15] = molecular target: T5, Nuclear receptor subfamily 0 group B member 1 (Homo sapiens, UniProt P51843); assay type: functional, cell-based;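 also: HEK293T cells transfected with SF-1 and DAX-1 plus StAR promoter luciferase reporter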
# T5 sequence (P51843 whole entry): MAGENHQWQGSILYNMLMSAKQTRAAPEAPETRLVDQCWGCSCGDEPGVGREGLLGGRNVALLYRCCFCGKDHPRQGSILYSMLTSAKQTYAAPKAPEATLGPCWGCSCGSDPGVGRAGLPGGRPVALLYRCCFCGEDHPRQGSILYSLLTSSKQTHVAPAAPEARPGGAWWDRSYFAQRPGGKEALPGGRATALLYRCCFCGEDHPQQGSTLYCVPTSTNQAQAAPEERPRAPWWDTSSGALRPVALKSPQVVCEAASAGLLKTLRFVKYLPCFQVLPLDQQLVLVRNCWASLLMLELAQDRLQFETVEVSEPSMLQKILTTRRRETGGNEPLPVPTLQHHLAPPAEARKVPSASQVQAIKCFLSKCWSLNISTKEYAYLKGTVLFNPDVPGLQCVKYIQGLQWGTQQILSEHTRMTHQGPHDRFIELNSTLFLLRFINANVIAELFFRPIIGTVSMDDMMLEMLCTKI
# [16] = molecular target: Glucose-6-phosphate 1-dehydrogenase (Homo sapiens, UniProt P11413); assay: human G6PD enzyme inhibitors, dose response, selectivity assay for P. falciparum G6PD inhibitor project, biochemical, fluorescence (AID 504792); assay type: functional
# [17] = molecular target: Protein-tyrosine kinase 2-beta (Homo sapiens, UniProt Q14289);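 also: potency of inhibitors of PYK2 kinase phosphorylation of poly-GT substrate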
# [18] = molecular target: Induced myeloid leukemia cell differentiation protein Mcl-1 (Homo sapiens, UniProt Q07820); assay type: functional
# [19] = cells
# [20] = growth suppression of PTEN-null colon cells, dose response, cell-based, HCT116 PTEN knockout (AID 1047); assay type: functional;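 also: HCT116 colon tumor cells with PTEN knocked out; cells exposed to compound for 60 hours before readout; potency for loss of cell viability measured by luminescence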
# [21] = Luminescence Cell-Based Dose Retest to Confirm Inhibitors of Cancer Stem Cells. [Related pubchem assays (depositor defined):AID2717, AID2721]; assay type: functional; conditions: Homo sapiens
# [22] = molecular target: T1, SUMO-activating enzyme; assay: SUMOylation inhibitor hit validation, confirmation, SUMOylation inhibitor project, biochemical, AlphaScreen (AID 2018); assay type: functional
# [23] = HEp-2 cell cytotoxicity, dose response, cytotoxicity control for RSV inhibitor project, HTS (AID 2410); assay type: functional; conditions: human respiratory syncytial virus
# [24] = tested on: Vero; assay: cells; assay type: functional; conditions: Chlorocebus sabaeus
# [25] = molecular target: Eukaryotic translation initiation factor 4E (Mus musculus, UniProt P63073); assay: eIF4E–eIF4G protein interaction inhibitors, dose response, biochemical, TR-FRET (AID 855); assay type: functional;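 also: potency for disrupting eIF4E binding to eIF4GI seen as loss of FRET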
# [26] = growth suppression of beta-catenin-knockout colon cells, dose response, cell-based, HCT116, human colon tumor (AID 1045); assay type: functional;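 also: HCT116 colon tumor cells with beta catenin knocked out; cells exposed to compound for 60 hours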
# [27] = molecular target: Cytochrome P450 3A4 (Homo sapiens, UniProt P08684);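 also: CYP3A4 tested as one member of a cytochrome P450 panel screen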
# [28] = cytotoxicity in HEK-293T cells, dose response, cytotoxicity control for BCR NF-kB inhibitor project, luminescence, B-cell screen hits (AID 489021); assay type: functional, cell-based;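 also: HEK-293T cells carrying an NF-kB luciferase reporter; cells exposed to compound for about 14 hours before viability readout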
# [29] = molecular target: T6, Sentrin-specific protease 1 (Homo sapiens, UniProt Q9P0U3); assay: Dose response confirmation of small molecule inhibitors of the catalytic domain of the SUMO protease, SENP1 in a FRET assay.; assay type: functional; conditions: read-out: IC50_Mean
# T6 sequence (Q9P0U3 whole entry): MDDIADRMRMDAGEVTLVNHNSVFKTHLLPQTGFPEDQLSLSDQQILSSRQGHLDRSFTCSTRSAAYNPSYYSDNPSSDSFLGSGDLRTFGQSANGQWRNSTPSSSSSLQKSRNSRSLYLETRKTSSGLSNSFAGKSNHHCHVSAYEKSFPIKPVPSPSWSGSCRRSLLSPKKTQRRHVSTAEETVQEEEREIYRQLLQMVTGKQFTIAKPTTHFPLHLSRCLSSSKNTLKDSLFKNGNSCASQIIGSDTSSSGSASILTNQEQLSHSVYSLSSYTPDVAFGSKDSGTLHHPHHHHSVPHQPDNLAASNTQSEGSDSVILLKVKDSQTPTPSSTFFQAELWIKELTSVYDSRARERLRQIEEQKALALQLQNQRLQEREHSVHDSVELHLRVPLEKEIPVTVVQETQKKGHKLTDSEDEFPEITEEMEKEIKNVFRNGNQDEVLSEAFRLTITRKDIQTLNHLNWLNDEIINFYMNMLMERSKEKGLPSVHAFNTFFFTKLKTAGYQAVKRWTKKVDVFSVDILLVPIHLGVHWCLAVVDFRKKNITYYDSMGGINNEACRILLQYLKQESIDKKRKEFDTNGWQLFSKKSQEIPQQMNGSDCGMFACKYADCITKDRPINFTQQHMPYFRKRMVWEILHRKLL
# [30] = molecular target: T6, Sentrin-specific protease 1; assay: potency of human SENP1 inhibitors, dose response, biochemical, kinetic FRET (AID 651697); assay type: functional; conditions: read-out: IC50_Mean
# [31] = cytotoxicity in HPDE-C7 cells, cell-based, fluorescence, HTS (AID 430); assay type: functional; conditions: Homo sapiens
# [32] = cytotoxicity in KRAS-transformed pancreatic duct cells, primary screen, cell-based, fluorescence, HTS (AID 431); assay type: functional; conditions: Homo sapiens;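 also: cell line used: HPDE-C7K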
# [33] = microbe, parasite or virus in culture; assay type: functional; conditions: Mycobacterium tuberculosis
# T1 sequence (Q9UBE0 whole entry): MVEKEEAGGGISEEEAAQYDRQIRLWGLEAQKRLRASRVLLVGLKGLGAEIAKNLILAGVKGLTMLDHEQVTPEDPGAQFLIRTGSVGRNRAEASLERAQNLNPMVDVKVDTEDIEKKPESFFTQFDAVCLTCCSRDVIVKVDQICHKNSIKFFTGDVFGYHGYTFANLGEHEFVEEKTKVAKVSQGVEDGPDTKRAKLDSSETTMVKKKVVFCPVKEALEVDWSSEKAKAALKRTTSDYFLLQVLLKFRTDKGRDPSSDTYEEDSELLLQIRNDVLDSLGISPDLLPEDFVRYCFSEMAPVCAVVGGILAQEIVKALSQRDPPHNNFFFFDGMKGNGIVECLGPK
# T1 sequence (Q9UBT2 whole entry): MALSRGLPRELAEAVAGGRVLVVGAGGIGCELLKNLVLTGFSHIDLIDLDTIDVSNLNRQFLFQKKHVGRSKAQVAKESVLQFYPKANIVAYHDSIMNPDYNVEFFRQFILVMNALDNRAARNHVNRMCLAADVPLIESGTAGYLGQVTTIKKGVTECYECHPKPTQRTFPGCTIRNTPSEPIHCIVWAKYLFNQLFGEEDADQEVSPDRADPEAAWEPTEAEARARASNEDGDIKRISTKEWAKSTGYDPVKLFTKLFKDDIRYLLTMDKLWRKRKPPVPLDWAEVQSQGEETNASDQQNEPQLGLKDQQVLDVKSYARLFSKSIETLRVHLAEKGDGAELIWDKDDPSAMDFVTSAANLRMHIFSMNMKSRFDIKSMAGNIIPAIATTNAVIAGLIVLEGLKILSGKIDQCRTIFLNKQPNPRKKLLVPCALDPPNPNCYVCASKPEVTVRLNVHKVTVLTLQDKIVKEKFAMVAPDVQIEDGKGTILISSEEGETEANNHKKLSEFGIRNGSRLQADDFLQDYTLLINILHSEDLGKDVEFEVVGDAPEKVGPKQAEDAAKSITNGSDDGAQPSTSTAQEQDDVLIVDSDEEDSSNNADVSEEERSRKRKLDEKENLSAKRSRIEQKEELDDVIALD
# Sequence of Glyceraldehyde-3-phosphate dehydrogenase (P04406 whole entry): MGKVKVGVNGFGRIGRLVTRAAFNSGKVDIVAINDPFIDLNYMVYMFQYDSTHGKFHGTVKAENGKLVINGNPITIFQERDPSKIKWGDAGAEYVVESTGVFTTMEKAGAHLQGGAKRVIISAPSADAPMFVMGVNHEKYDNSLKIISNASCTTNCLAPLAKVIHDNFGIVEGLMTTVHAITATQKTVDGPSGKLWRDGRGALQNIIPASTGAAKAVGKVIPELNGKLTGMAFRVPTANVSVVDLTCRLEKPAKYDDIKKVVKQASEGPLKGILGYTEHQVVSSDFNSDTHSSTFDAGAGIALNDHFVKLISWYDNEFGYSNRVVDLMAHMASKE
# Sequence of Lysosomal acid glucosylceramidase (P04062 whole entry): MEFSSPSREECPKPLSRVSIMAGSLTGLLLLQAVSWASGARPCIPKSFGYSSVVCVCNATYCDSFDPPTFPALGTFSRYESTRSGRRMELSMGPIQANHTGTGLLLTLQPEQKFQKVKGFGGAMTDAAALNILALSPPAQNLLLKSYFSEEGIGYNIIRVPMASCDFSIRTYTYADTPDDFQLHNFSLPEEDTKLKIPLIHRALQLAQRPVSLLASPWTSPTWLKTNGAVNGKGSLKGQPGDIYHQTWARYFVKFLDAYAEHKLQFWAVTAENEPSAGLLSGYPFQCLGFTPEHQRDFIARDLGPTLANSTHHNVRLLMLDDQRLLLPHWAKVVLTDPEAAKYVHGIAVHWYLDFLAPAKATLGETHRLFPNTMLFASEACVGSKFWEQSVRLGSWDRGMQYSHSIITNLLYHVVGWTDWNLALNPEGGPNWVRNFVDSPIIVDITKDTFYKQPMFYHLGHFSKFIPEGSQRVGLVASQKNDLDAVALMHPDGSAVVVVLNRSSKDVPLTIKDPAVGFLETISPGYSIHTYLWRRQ
# Sequence of Metabotropic glutamate receptor 4 (P31423 whole entry): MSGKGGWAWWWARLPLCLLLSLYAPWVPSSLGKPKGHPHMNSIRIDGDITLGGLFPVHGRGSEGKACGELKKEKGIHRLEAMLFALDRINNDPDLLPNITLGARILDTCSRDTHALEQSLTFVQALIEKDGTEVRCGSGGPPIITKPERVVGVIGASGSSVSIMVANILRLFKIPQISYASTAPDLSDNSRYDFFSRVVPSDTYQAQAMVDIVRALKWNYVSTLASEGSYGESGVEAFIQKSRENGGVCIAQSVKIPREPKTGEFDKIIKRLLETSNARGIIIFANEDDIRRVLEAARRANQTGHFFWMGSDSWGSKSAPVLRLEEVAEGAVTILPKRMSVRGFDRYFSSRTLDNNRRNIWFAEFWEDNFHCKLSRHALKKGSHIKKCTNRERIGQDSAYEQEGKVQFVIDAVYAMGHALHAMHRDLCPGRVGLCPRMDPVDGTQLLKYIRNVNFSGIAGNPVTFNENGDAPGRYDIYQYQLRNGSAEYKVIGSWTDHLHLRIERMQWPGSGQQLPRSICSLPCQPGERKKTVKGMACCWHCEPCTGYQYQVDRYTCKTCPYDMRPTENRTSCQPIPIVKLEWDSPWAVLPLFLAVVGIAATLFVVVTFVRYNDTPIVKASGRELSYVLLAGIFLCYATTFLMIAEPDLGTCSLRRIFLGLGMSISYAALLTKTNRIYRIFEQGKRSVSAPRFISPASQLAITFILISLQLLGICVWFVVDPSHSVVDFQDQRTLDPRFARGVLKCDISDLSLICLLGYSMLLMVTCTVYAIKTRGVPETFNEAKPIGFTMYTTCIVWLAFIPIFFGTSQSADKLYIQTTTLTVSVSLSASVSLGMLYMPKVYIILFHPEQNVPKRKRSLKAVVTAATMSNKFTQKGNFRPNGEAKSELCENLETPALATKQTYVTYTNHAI
# Sequence of Protein Rev (P05866 whole entry): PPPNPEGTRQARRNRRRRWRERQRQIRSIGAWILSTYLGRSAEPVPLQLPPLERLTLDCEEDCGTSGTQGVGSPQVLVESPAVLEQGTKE
# Sequence of Kallikrein-7 (P49862 whole entry): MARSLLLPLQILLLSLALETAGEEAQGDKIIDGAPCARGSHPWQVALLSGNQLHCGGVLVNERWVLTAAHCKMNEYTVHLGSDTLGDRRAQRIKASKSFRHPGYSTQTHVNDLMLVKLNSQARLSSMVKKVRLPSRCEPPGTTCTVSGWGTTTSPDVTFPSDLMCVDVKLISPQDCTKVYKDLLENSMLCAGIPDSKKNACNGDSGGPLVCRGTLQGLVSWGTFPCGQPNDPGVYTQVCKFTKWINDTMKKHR
# Sequence of Cytochrome P450 3A4 (P08684 whole entry): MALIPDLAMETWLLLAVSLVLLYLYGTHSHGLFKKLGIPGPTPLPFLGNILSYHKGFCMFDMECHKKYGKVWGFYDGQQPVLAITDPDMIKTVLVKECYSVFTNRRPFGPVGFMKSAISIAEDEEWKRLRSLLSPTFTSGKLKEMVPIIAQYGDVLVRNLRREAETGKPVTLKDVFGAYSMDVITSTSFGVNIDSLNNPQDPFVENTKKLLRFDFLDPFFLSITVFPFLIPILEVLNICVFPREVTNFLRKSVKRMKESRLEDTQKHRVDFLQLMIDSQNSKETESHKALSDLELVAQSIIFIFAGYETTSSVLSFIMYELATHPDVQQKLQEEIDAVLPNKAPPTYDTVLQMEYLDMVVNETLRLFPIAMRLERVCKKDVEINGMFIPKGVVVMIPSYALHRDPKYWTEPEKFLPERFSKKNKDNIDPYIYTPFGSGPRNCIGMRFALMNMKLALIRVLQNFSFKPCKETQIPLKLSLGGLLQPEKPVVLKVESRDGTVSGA
# Sequence of Melanin-concentrating hormone receptor 1 (Q99705 whole entry): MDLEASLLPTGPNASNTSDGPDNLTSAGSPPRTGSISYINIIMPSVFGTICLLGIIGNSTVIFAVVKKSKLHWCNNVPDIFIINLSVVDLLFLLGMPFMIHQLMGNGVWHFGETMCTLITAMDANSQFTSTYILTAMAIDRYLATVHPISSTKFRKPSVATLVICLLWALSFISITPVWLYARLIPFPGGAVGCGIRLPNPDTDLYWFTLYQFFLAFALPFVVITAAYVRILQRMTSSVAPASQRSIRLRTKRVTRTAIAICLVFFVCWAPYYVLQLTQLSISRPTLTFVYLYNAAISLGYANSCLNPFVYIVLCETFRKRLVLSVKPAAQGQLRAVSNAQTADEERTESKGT
# Sequence of Protein-tyrosine kinase 2-beta (Q14289 whole entry): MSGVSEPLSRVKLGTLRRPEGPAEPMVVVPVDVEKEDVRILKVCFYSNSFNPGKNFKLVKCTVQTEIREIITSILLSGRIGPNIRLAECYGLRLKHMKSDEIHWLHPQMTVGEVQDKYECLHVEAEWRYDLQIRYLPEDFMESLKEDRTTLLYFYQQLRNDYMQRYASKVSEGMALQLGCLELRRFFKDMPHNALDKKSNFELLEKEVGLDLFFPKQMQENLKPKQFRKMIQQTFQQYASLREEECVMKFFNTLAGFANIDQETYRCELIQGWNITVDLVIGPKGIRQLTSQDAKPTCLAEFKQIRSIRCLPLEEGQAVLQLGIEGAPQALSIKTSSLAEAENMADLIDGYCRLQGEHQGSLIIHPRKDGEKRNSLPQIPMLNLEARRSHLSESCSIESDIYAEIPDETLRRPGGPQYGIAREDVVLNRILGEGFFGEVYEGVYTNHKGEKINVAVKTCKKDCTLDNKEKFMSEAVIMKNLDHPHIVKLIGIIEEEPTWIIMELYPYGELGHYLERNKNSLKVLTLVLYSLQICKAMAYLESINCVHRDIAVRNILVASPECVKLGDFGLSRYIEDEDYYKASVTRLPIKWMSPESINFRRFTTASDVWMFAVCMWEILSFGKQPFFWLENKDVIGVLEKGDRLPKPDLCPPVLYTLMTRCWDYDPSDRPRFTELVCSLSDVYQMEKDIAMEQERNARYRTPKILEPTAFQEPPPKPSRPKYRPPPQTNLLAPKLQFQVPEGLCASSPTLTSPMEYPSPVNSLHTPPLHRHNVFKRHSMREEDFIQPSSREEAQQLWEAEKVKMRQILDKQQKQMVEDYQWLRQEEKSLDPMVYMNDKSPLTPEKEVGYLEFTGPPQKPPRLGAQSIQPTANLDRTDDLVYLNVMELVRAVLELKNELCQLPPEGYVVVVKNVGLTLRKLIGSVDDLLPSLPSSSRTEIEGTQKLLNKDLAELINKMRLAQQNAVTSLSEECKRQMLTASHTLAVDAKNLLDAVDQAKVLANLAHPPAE
structure (smiles),measurement,setting,value
COCCCNC(=O)/C=C1\Sc2ccccc2N(Cc2ccccc2F)C1=O,IC50,[1],28.8 µM (not active)
NCCCC(=O)N1c2ccccc2Sc2ccccc21,IC50,[2],> 79.4 µM (not active)
O=[N+]([O-])c1cc([N+](=O)[O-])c2nonc2c1Nc1ccc(O)cc1,IC50,[3],> 100 µM (inactive)
same,IC50,[4],56.8 µM (active)
COc1ccc(-c2cc(C(F)(F)F)n3ncc(C(=O)N4CCCCC4c4cccnc4)c3n2)cc1 (stereo not given),IC50,[5],> 100 µM (active)
CCOCCCn1c(=N)c(C(=O)NCCN2CCOCC2)cc2c(=O)n3cccc(C)c3nc21,EC50,[6],> 69.5 µM (inactive)
same,EC50,[7],> 50 µM (not active)
same,AC50,[8],25.3 µM (active)
Cc1cccc(N2C(=O)C(Cl)=C(N3CCN[C@@H](C)C3)C2=O)c1,IC50,[9],> 50 µM (inconclusive)
CN1CCN(C2=C(Cl)C(=O)N(c3ccnc(Cl)c3)C2=O)CC1,IC50,[9],> 100 µM (not active)
same,IC50,[10],29 µM (active)
same,IC50,[11],35.6 µM (active)
O=C(Nc1ccc(Cl)c(Cl)c1)c1ccncn1,EC50,[12],3.37 µM (active)
O=C(Nc1ccc(N2C(=O)CC(c3ccccc3)C2=O)c(Cl)c1)c1ccccn1 (stereo not given),EC50,[12],0.49 µM (active)
CC(C)COc1ccc(Cc2cnc(N)nc2N)cc1,IC50,[2],> 79.4 µM (not active)
COc1ccc(/C=C/C(=O)Nc2ccccc2C(=O)O)cc1,IC50,[13],> 67.5 µM (inactive)
same,IC50,[14],31 µM (active)
same,IC50,[15],> 67.5 µM (inactive)
O=C(Nc1sc2c(c1C(=O)O)CCC2)c1ccc(F)cc1,IC50,[14],31.4 µM (active)
same,IC50,[16],> 80 µM (inactive)
O=Cc1ccc2noc(-c3ccc(F)cc3)c2c1,IC50,[17],> 69.5 µM (not active)
same,IC50,[5],> 100 µM (active)
COc1cc2c(-c3ccc(O)cc3)nc3c(c(C)nn3-c3ccccc3)c2cc1OC,IC50,[18],< 0.4 µM (active)
same,IC50,[19],19.1 µM (active)
same,EC50,[20],9.2 µM (active)
same,AC50,[21],1.23 µM (active)
same,IC50,[22],2.06 µM (active)
same,CC50,[23],9.63 µM (active)
same,IC50,[3],7.67 µM (active)
same,CC50,[24],19.7 µM (active)
same,IC50,[25],53.5 µM (inactive)
same,EC50,[26],8.96 µM (active)
CC1=C(C(N)=O)C(c2cccs2)n2nc(-c3cccc(C)c3)nc2N1 (stereo not given),EC50,[7],> 50 µM (not active)
CCN1C(=O)c2cccc3c(NC(=O)c4cccc(N5C(=O)CCC5=O)c4)ccc1c23,AC50,[27],22.4 µM (inconclusive)
same,IC50,[28],> 80 µM (inactive)
same,IC50,[29],11.3 µM (active)
same,IC50,[30],17.9 µM (active)
Cc1nc2cc(C(F)(F)F)ccc2n1C1CCN(Cc2nnnn2Cc2ccc3c(c2)OCO3)CC1,EC50,[31],8.54 µM (active)
same,EC50,[32],8.93 µM (active)
same,CC50,[33],> 40 µM (active)
